Publication PMC5573151 (Clinical cancer research : an official journal of the …, 2009)

Molecular target: HLA-A2.1 (Homo sapiens, UniProt P04439, D140Y/D185E/D98H/E176V/E277Q/G131W/G231S/I119V/I121R/I166T/I218V/L300P/L318F/N151K/N90K/P208A/P217A/Q86G/Q94H/R138H/R169H/T345S)
Assay: MHC stabilization
Assay type: binding
Conditions: T2 cell assay

Sequence	Binding to A2.1 (in words)
SLYDSCYQI [SIM2(199)]	strongly bind
KLLPLPSAI [SIM2(25)]	strongly bind
